Experimental data: ChEMBL document CHEMBL1130668, “Synthesis and evaluation of paclitaxel C7 derivatives: solution phase synthesis of combinatorial libraries” (1998)
The source made the active and inactive calls. No cut-off for these calls is given here.

Legend:
[1] = tested on: MCF7; assay: Cytotoxicity activity was measured against human breast cancer cell line MCF-7 with respect to ED50 of paclitaxel (2 nM); IA inactive; format: functional, cell-based
[2] = tested on: MCF7; assay: Cytotoxicity activity was measured against resistant human breast cancer cell line MCF-7 with respect to ED50 of paclitaxel (2200-3700 nM); IA inactive; format: functional, cell-based
[3] = Ratio in tubulin to that of paclitaxel (0.3 uM) in microtubule assembly assay; IA inactive; format: functional
[4] = tested on: MCF7; assay: Cytotoxicity activity was measured against human breast cancer cell line MCF-7; Did not inhibit proliferation at maximum concentration tested; format: functional; conditions: read-out: ED50 (the source's name)
[5] = tested on: MCF7; assay: Cytotoxicity activity was measured against resistant human breast cancer cell line MCF-7; Did not inhibit proliferation at maximum concentration tested; format: functional; conditions: read-out: ED50 (the source's name)
[6] = tested on: MCF7; assay: Effect on microtubule assembly in MCF-7 cells, compared to paclitaxel (0.3 uM), given as ratio of respective ED50; format: functional, Homo sapiens

Structure (SMILES) | ED50 [1] | ED50 [2] | Ratio [3] | EC50 [4] | EC50 [5] | Ratio [6]
CCCCCCCCCCCCC(=O)O[C@H]1C[C@H]2OC[C@@]2(OC(C)=O)[C@H]2[C@H](OC(=O)c3ccccc3)[C@]3(O)C[C@H](OC(=O)[C@H](O)[C@@H](NC(=O)c4ccccc4)c4ccccc4)C(C)=C([C@@H](OC(C)=O)C(=O)[C@]12C)C3(C)C | inactive | inactive | inactive | – | – | –
CC(=O)O[C@H]1C(=O)[C@]2(C)[C@@H](OC(=O)/C=C/Cl)C[C@H]3OC[C@@]3(OC(C)=O)[C@H]2[C@H](OC(=O)c2ccccc2)[C@]2(O)C[C@H](OC(=O)[C@H](O)[C@@H](NC(=O)c3ccccc3)c3ccccc3)C(C)=C1C2(C)C | – | – | – | > 0.08 µM | > 5 µM | 5.3
CC(=O)O[C@H]1C(=O)[C@]2(C)[C@@H](OC(=O)c3ccc(Cl)c(Cl)c3)C[C@H]3OC[C@@]3(OC(C)=O)[C@H]2[C@H](OC(=O)c2ccccc2)[C@]2(O)C[C@H](OC(=O)[C@H](O)[C@@H](NC(=O)c3ccccc3)c3ccccc3)C(C)=C1C2(C)C | – | – | – | > 0.08 µM | > 5 µM | 24
CC(=O)O[C@H]1C(=O)[C@]2(C)[C@@H](OC(=O)c3cnc(Cl)c(Cl)c3)C[C@H]3OC[C@@]3(OC(C)=O)[C@H]2[C@H](OC(=O)c2ccccc2)[C@]2(O)C[C@H](OC(=O)[C@H](O)[C@@H](NC(=O)c3ccccc3)c3ccccc3)C(C)=C1C2(C)C | inactive | inactive | inactive | – | – | –
CC(=O)O[C@H]1C(=O)[C@]2(C)[C@@H](OC(=O)CCc3ccccc3)C[C@H]3OC[C@@]3(OC(C)=O)[C@H]2[C@H](OC(=O)c2ccccc2)[C@]2(O)C[C@H](OC(=O)[C@H](O)[C@@H](NC(=O)c3ccccc3)c3ccccc3)C(C)=C1C2(C)C | inactive | inactive | inactive | – | – | –
CC(=O)O[C@H]1C(=O)[C@]2(C)[C@@H](OC(=O)CCCNC(=O)OC(C)(C)C)C[C@H]3OC[C@@]3(OC(C)=O)[C@H]2[C@H](OC(=O)c2ccccc2)[C@]2(O)C[C@H](OC(=O)[C@H](O)[C@@H](NC(=O)c3ccccc3)c3ccccc3)C(C)=C1C2(C)C | – | – | – | > 0.08 µM | > 5 µM | 0.7
C/C=C/C(=O)O[C@H]1C[C@H]2OC[C@@]2(OC(C)=O)[C@H]2[C@H](OC(=O)c3ccccc3)[C@]3(O)C[C@H](OC(=O)[C@H](O)[C@@H](NC(=O)c4ccccc4)c4ccccc4)C(C)=C([C@@H](OC(C)=O)C(=O)[C@]12C)C3(C)C [PACLITAXEL C7 CROTONIC ACID ESTER] | – | – | – | > 0.08 µM | > 5 µM | 6.7
